{"source": "ChEMBL document CHEMBL6103654", "about": "“Design, Biological Characterization, and Discovery of Capromorelin Derivatives as Oral Growth Hormone Secretagogue Receptor Type 1a Agonist for the Treatment of Growth Hormone Deficiency” (J Med Chem, 2025)", "key": {"Rattus norvegicus [1]": {"test_system": "Rattus norvegicus", "assay": "Induction of growth hormone level in Juvenile Sprague-Dawley rat blood at 0.5 mg/kg, po administered as single dose measured after 10 mins by ELISA method (reference value: 23.2+/-5.6 ng/mL)", "type": "functional"}, "[2]": {"assay": "Half life in male dog at 2 mg/kg, po administered as single dose measured after 4 hrs", "type": "ADME, organism-based, Canis lupus familiaris", "conditions": "in vivo"}, "Rattus norvegicus [3]": {"test_system": "Rattus norvegicus", "assay": "Induction of growth hormone level in adult Sprague-Dawley rat blood at 0.1 mg/kg, po administered as single dose measured after 20 mins by ELISA method (reference value: 4.9+/-1.1 ng/mL)", "type": "functional"}, "Rattus norvegicus [4]": {"test_system": "Rattus norvegicus", "assay": "Induction of growth hormone level in Juvenile Sprague-Dawley rat blood at 0.1 mg/kg, po administered as single dose measured immediately by ELISA method (reference value: 28.5+/-8.7 ng/mL)", "type": "functional"}, "Rattus norvegicus [5]": {"test_system": "Rattus norvegicus", "assay": "Induction of growth hormone level in 6 week-old female Sprague-Dawley rat assessed as increase in body weight at 2.5 mg/kg, po measured after 10 days", "type": "functional, organism-based", "conditions": "time 10.0 day"}, "Rattus norvegicus [6]": {"test_system": "Rattus norvegicus", "assay": "Induction of growth hormone level in adult Sprague-Dawley rat blood at 0.2 mg/kg, po administered as single dose measured immediately by ELISA method (reference value: 12.6+/-4.4 ng/mL)", "type": "functional"}, "Rattus norvegicus [7]": {"test_system": "Rattus norvegicus", "assay": "Induction of growth hormone level in Juvenile Sprague-Dawley rat blood at 0.5 mg/kg, po administered as single dose measured immediately by ELISA method (reference value: 28.5+/-8.7 ng/mL)", "type": "functional"}, "Rattus norvegicus [8]": {"test_system": "Rattus norvegicus", "assay": "Induction of growth hormone level in adult Sprague-Dawley rat blood at 0.5 mg/kg, po administered as single dose measured after 10 mins by ELISA method (reference value: 13.7+/-7.2 ng/mL)", "type": "functional"}, "Rattus norvegicus [9]": {"test_system": "Rattus norvegicus", "assay": "Induction of growth hormone level in adult Sprague-Dawley rat blood by measuring AUC(0 to 40 mins) at 0.5 mg/kg, po administered as single dose by ELISA method (reference value: 7.0+/-1.7 ng/mL)", "type": "functional, organism-based"}, "[10]": {"assay": "Oral bioavailability in male monkey at 2 mg/kg administered as single dose measured after 4 hrs", "type": "ADME, organism-based, Macaca mulatta", "conditions": "rhesus monkey, in vivo"}, "Rattus norvegicus [11]": {"test_system": "Rattus norvegicus", "assay": "In vivo agonist activity at GSHR in Sprague-Dawley rat assessed as increase in body weight at 10 to 100 mg/kg, po administered once daily for 14 days", "type": "functional, organism-based", "conditions": "dose 10-100 mg/kg, time 14.0 day"}, "Rattus norvegicus [12]": {"test_system": "Rattus norvegicus", "assay": "Induction of growth hormone level in Juvenile Sprague-Dawley rat blood at 0.1 mg/kg, po administered as single dose measured after 10 mins by ELISA method (reference value: 23.2+/-5.6 ng/mL)", "type": "functional"}, "[13]": {"assay": "Genotoxicity in Salmonella typhimurium TA1535 by Ames test", "type": "toxicity", "conditions": "salmonella enterica subsp. enterica serovar typhimurium"}, "Rattus norvegicus [14]": {"test_system": "Rattus norvegicus", "assay": "Induction of growth hormone level in Juvenile Sprague-Dawley rat blood at 0.1 mg/kg, po administered as single dose measured after 4 hrs by ELISA method (reference value: 32.5+/-4.5 ng/mL)", "type": "functional"}, "Rattus norvegicus [15]": {"test_system": "Rattus norvegicus", "assay": "Induction of growth hormone level in 4 week-old female Sprague-Dawley rat assessed as increase in body length at 2.5 mg/kg, po measured after 10 days", "type": "functional, organism-based", "conditions": "time 10.0 day"}, "[16]": {"assay": "Agonist activity at human GHSR expressed in CHO cells incubated for 60 min by FLIPR assay", "type": "cell-based", "conditions": "1 h"}, "[17]": {"assay": "Toxicity in Sprague-Dawley rat assessed as effect on red pulp with a network of sinuses filled with erythrocytes at 10 to 100 mg/kg, po administered once daily for 14 days by H&E staining based analysis", "type": "organism-based", "conditions": "in vivo, 336 h, dose 10-100 mg/kg, time 14 day"}, "Rattus norvegicus [18]": {"test_system": "Rattus norvegicus", "assay": "Induction of growth hormone level in Juvenile Sprague-Dawley rat blood at 0.2 mg/kg, po administered as single dose measured immediately by ELISA method (reference value: 28.5+/-8.7 ng/mL)", "type": "functional"}, "[19]": {"assay": "Metabolic stability in rat liver microsome assessed as intrinsic clearance at 1 uM measured upto 60 mins in presence of NADPH by LC-MS/MS analysis", "type": "ADME", "conditions": "liver microsomes, read-out: CLH"}, "Cytochrome P450 3A4": {"molecular_target": "Cytochrome P450 3A4 (Homo sapiens, UniProt P08684)", "sequence (P08684 whole entry)": "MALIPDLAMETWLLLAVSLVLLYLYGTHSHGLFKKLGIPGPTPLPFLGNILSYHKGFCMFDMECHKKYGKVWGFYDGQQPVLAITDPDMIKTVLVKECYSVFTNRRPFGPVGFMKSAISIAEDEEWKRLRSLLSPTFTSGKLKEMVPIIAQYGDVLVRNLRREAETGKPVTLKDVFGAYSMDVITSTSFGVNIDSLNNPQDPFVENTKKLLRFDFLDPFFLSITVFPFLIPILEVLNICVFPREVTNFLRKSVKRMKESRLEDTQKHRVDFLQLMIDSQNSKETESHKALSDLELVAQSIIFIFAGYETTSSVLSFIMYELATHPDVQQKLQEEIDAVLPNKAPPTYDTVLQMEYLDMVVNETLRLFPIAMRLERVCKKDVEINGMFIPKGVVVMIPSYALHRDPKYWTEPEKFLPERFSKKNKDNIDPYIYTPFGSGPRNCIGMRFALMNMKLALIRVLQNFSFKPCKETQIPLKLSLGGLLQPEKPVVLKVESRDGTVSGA", "assay": "Inhibition of CYP3A4 in human liver microsome using testosterone as substrate incubated for 5 min in presence of NADPH by UPLC-MS/MS analysis", "type": "ADME, microsomes"}, "Rattus norvegicus [20]": {"test_system": "Rattus norvegicus", "assay": "Induction of growth hormone level in Juvenile Sprague-Dawley rat blood at 0.1 mg/kg, po administered as single dose measured after 2 hrs by ELISA method (reference value: 26.5+/-7.3 ng/mL)", "type": "functional"}, "[21]": {"assay": "Agonist activity at monkey GHSR expressed in CHO cells incubated for 60 min by FLIPR assay", "type": "cell-based", "conditions": "Macaca mulatta, 1 h"}, "[22]": {"assay": "AUC in male mouse at 2 mg/kg, po administered as single dose measured after 4 hrs", "type": "ADME, organism-based", "conditions": "in vivo"}, "[23]": {"assay": "Toxicity in Sprague-Dawley rat liver assessed as change in central veins at 10 to 100 mg/kg, po administered once daily for 14 days", "type": "organism-based", "conditions": "in vivo, 336 h, dose 10-100 mg/kg, time 14 day"}, "[24]": {"assay": "Tmax in male dog at 2 mg/kg, po administered as single dose measured after 4 hrs", "type": "ADME, organism-based, Canis lupus familiaris", "conditions": "in vivo"}, "Rattus norvegicus [25]": {"test_system": "Rattus norvegicus", "assay": "Induction of growth hormone level in Juvenile Sprague-Dawley rat blood by measuring AUC(0 to 40 mins) at 0.5 mg/kg, po administered as single dose by ELISA method (reference value: 20.2+/-4.3 ng/mL)", "type": "functional, organism-based"}, "Cytochrome P450 2C19": {"molecular_target": "Cytochrome P450 2C19 (Homo sapiens, UniProt P33261)", "sequence (P33261 whole entry)": "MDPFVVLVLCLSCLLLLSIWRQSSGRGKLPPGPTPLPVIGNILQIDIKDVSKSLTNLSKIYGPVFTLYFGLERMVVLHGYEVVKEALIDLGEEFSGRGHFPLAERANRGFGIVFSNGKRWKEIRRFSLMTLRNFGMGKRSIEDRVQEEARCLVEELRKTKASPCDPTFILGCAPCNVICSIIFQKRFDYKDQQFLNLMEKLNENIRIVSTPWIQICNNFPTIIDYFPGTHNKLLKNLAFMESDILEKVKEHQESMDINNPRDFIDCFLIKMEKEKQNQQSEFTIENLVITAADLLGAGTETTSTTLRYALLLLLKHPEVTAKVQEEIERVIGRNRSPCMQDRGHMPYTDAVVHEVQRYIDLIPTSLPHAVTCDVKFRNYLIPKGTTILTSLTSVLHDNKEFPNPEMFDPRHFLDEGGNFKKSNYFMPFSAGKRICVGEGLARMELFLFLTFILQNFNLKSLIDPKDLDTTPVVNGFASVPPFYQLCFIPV", "assay": "Inhibition of CYP2C19 in human liver microsome incubated for 5 min in presence of NADPH by UPLC-MS/MS analysis", "type": "ADME, microsomes"}, "[26]": {"assay": "Metabolic stability in human liver microsome assessed as hepatic clearance at 1 uM measured upto 60 mins in presence of NADPH by LC-MS/MS analysis", "type": "ADME", "conditions": "liver microsomes, read-out: CLH"}, "[27]": {"assay": "Volume of distribution in male monkey at 0.5 mg/kg, iv administered as single dose measured after 4 hrs", "type": "ADME, organism-based, Macaca mulatta", "conditions": "rhesus monkey, in vivo"}, "[28]": {"assay": "Toxicity in Sprague-Dawley rat assessed as effect on hepatic cords at 10 to 100 mg/kg, po administered once daily for 14 days", "type": "organism-based", "conditions": "in vivo, 336 h, dose 10-100 mg/kg, time 14 day"}, "Rattus norvegicus [29]": {"test_system": "Rattus norvegicus", "assay": "Induction of growth hormone level in adult Sprague-Dawley rat blood by measuring AUC(0 to 40 mins) at 0.2 mg/kg, po administered as single dose by ELISA method (reference value: 7.0+/-1.7 ng/mL)", "type": "functional, organism-based"}, "Rattus norvegicus [30]": {"test_system": "Rattus norvegicus", "assay": "Induction of growth hormone level in adult Sprague-Dawley rat blood at 0.2 mg/kg, po administered as single dose measured after 10 mins by ELISA method (reference value: 13.7+/-7.2 ng/mL)", "type": "functional"}, "CHO": {"test_system": "CHO", "assay": "Agonist activity at human GHSR expressed in CHO cells at maximum concentration incubated for 60 min by FLIPR assay relative to control", "type": "cell-based", "conditions": "filed as agonist"}, "Rattus norvegicus [31]": {"test_system": "Rattus norvegicus", "assay": "Induction of growth hormone level in Juvenile Sprague-Dawley rat blood at 0.2 mg/kg, po administered as single dose measured after 20 mins by ELISA method (reference value: 29.1+/-8.6 ng/mL)", "type": "functional"}, "[32]": {"assay": "Tmax in male mouse at 2 mg/kg, po administered as single dose measured after 4 hrs", "type": "ADME, organism-based", "conditions": "in vivo"}, "[33]": {"assay": "Plasma protein binding in human assessed as unbound fraction measured after 6 hrs by dialysis method", "type": "ADME, cell-free"}}, "note": "The source made the active and inactive calls. The calls are words filed in the database; no cut-off is given here."}
{"smiles": "CC(C)(N)C(=O)N[C@H](COCc1ccccc1)C(=O)N1CCC2=NN(C3CC3)C(=O)[C@]2(Cc2ccccc2)C1", "values": [{"measurement": "Activity", "setting": "Rattus norvegicus [1]", "value": 230.9, "unit": "ng/mL"}, {"measurement": "half-life", "setting": "[2]", "value": 71.4, "unit": "min"}, {"measurement": "Activity", "setting": "Rattus norvegicus [3]", "value": 74.5, "unit": "ng/mL"}, {"measurement": "Activity", "setting": "Rattus norvegicus [4]", "value": 31.1, "unit": "ng/mL"}, {"measurement": "Activity", "setting": "Rattus norvegicus [5]", "value": "Active"}, {"measurement": "Activity", "setting": "Rattus norvegicus [6]", "value": 22, "unit": "ng/mL"}, {"measurement": "Activity", "setting": "Rattus norvegicus [7]", "value": 42.8, "unit": "ng/mL"}, {"measurement": "Activity", "setting": "Rattus norvegicus [8]", "value": 238.6, "unit": "ng/mL"}, {"measurement": "AUC", "setting": "Rattus norvegicus [9]", "value": 62.8, "unit": "ng·h/mL"}, {"measurement": "F", "setting": "[10]", "value": 15.88, "unit": "%"}, {"measurement": "Activity", "setting": "Rattus norvegicus [11]", "value": "Active"}, {"measurement": "Activity", "setting": "Rattus norvegicus [12]", "value": 168.5, "unit": "ng/mL"}, {"measurement": "Activity", "setting": "[13]", "value": "Non-toxic"}, {"measurement": "Activity", "setting": "Rattus norvegicus [14]", "value": 41.4, "unit": "ng/mL"}, {"measurement": "Activity", "setting": "Rattus norvegicus [15]", "value": "Active"}, {"measurement": "EC50", "setting": "[16]", "value": 0.55, "unit": "nM"}, {"measurement": "Activity", "setting": "[17]", "value": "Non-toxic"}, {"measurement": "Activity", "setting": "Rattus norvegicus [18]", "value": 33.4, "unit": "ng/mL"}, {"measurement": "microsomal CLint at 1 µM", "setting": "[19]", "value": 140, "unit": "µL/min/mg"}, {"measurement": "IC50", "setting": "Cytochrome P450 3A4", "value": "> 30000", "unit": "nM"}, {"measurement": "Activity", "setting": "Rattus norvegicus [20]", "value": 36.7, "unit": "ng/mL"}, {"measurement": "EC50", "setting": "[21]", "value": 0.046, "unit": "nM"}, {"measurement": "AUC at 4 h", "setting": "[22]", "value": 93.1, "unit": "ng·h/mL"}, {"measurement": "Activity", "setting": "[23]", "value": "Non-toxic"}, {"measurement": "Tmax", "setting": "[24]", "value": 25.2, "unit": "min"}, {"measurement": "AUC", "setting": "Rattus norvegicus [25]", "value": 110, "unit": "ng·h/mL"}, {"measurement": "IC50", "setting": "Cytochrome P450 2C19", "value": "> 30000", "unit": "nM"}, {"measurement": "CLint scaled at 1 µM", "setting": "[26]", "value": 127, "unit": "mL/min/kg"}, {"measurement": "Vd", "setting": "[27]", "value": 2.36, "unit": "L/kg"}, {"measurement": "Activity", "setting": "[28]", "value": "Non-toxic"}, {"measurement": "AUC", "setting": "Rattus norvegicus [29]", "value": 62.6, "unit": "ng·h/mL"}, {"measurement": "Activity", "setting": "Rattus norvegicus [30]", "value": 228.6, "unit": "ng/mL"}, {"measurement": "Activity", "setting": "CHO", "value": 152, "unit": "%"}, {"measurement": "Activity", "setting": "Rattus norvegicus [31]", "value": 217.8, "unit": "ng/mL"}, {"measurement": "Tmax", "setting": "[32]", "value": 15, "unit": "min"}, {"measurement": "fraction unbound at 6 h", "setting": "[33]", "value": 0.695}]}
